Assay results reported in US20150119363A1, “METHODS OF TREATING BACTERIAL INFECTIONS” (Rampex Pharmaceuticals, Inc., priority 2012, published 2015).

Tests used:
Assay in all cases: Dose titration biapenem potentiation assay (MPC1)
Details in all cases: biapenem 1 μg/mL
KP1004 KPC-2 = format: cell-based, Klebsiella pneumoniae
Method: (§1) The potency and spectrum of β-lactamase inhibitors is also determined by assessing their biapenem potentiation activity in a dose titration potentiation assay using strains expressing serine carbapemenases (such as KPC). The potentiation effect is observed as the ability of BLI compounds to inhibit growth in the presence of sub-inhibitory concentration of biapenem. […] Biapenem is present in the test medium at 1 μg/mL. Compounds tested at the highest concentration of 40 μg/mL. […] Table 5 summarizes BLI potency of biapenem potentiation (MPC1). Biapenem MIC for each strain is also shown.

KP1008 KPC-2 = format: cell-based, Klebsiella pneumoniae
Method: as §1

EC1007 KPC-3 = format: cell-based, Escherichia coli
Method: as §1

ECL1004 NMC-A = format: cell-based, Enterobacter cloacae
Method: as §1

| Compound | BPM MPC1 KP1004 KPC-2 (KP1004 KPC-2) | BPM MPC1 KP1008 KPC-2 (KP1008 KPC-2) | BPM MPC1 EC1007 KPC-3 (EC1007 KPC-3) | BPM MPC1 ECL1004 NMC-A (ECL1004 NMC-A) |
| --- | --- | --- | --- | --- |
| N[C@H](C(=O)N[C@H]1CC[C@@H](CC(=O)O)OB1O)c1ccccc1 [Compound 33, 2-((3R,6S)-3-((S)-2-amino-2-phenylacetamido)-2-hydroxy-1,2-oxaborinan-6-yl)acetic acid] | X (X = MPC1 of less than 1 μg/mL.) | X (X = MPC1 of less than 1 μg/mL.) | X (X = MPC1 of less than 1 μg/mL.) | X (X = MPC1 of less than 1 μg/mL.) |
| NCCC(=O)N[C@H]1CC[C@@H](CC(=O)O)OB1O [Compound 34, 2-((3R,6S)-3-(3-aminopropanamido)-2-hydroxy-1,2-oxaborinan-6-yl)acetic acid] | X (X = MPC1 of less than 1 μg/mL.) | X (X = MPC1 of less than 1 μg/mL.) | X (X = MPC1 of less than 1 μg/mL.) | Y (Y = MPC1 of 1 μg/mL to 5 μg/mL.) |
| N[C@@H](CCC(=O)N[C@H]1CC[C@@H](CC(=O)O)OB1O)C(=O)O [Compound 35, (S)-2-amino-5-((3R,6S)-6-(carboxymethyl)-2-hydroxy-1,2-oxaborinan-3-ylamino)-5-oxopentanoic acid] | X (X = MPC1 of less than 1 μg/mL.) | X (X = MPC1 of less than 1 μg/mL.) | X (X = MPC1 of less than 1 μg/mL.) | Y (Y = MPC1 of 1 μg/mL to 5 μg/mL.) |
| CC(C)(O/N=C(\C(=O)N[C@H]1CC[C@@H](CC(=O)O)OB1O)c1csc(N)n1)C(=O)O [Compound 36, 2-((Z)-1-(2-aminothiazol-4-yl)-2-((3R,6S)-6-(carboxymethyl)-2-hydroxy-1,2-oxaborinan-3-ylamino)-2-oxoethylideneaminooxy)-2-methylpropanoic acid] | Z (Z = MPC1 of greater than 5 μg/mL.) | X (X = MPC1 of less than 1 μg/mL.) | Y (Y = MPC1 of 1 μg/mL to 5 μg/mL.) | X (X = MPC1 of less than 1 μg/mL.) |
| O=C(O)C[C@@H]1CC[C@H](NC(=O)c2ccccc2)B(O)O1 [Compound 37, 2-((3R,6S)-3-benzamido-2-hydroxy-1,2-oxaborinan-6-yl)acetic acid] | X (X = MPC1 of less than 1 μg/mL.) | X (X = MPC1 of less than 1 μg/mL.) | X (X = MPC1 of less than 1 μg/mL.) | X (X = MPC1 of less than 1 μg/mL.) |
| O=C(O)C[C@@H]1CC[C@H](NC(=O)CCc2ccccc2)B(O)O1 [Compound 38, 2-((3R,6S)-2-hydroxy-3-(3-phenylpropanamido)-1,2-oxaborinan-6-yl)acetic acid] | X (X = MPC1 of less than 1 μg/mL.) | X (X = MPC1 of less than 1 μg/mL.) | X (X = MPC1 of less than 1 μg/mL.) | X (X = MPC1 of less than 1 μg/mL.) |
| Nc1nc(CC(=O)N[C@H]2CC[C@@H](CC(=O)O)OB2O)cs1 [Compound 39, 2-((3R,6S)-3-(2-(2-aminothiazol-4-yl)acetamido)-2-hydroxy-1,2-oxaborinan-6-yl)acetic acid] | X (X = MPC1 of less than 1 μg/mL.) | X (X = MPC1 of less than 1 μg/mL.) | X (X = MPC1 of less than 1 μg/mL.) | X (X = MPC1 of less than 1 μg/mL.) |
| CO/N=C(\C(=O)N[C@H]1CC[C@@H](CC(=O)O)OB1O)c1csc(N)n1 [Compound 40, 2-((3R,6S)-3-((Z)-2-(2-aminothiazol-4-yl)-2-(methoxyimino)acetamido)-2-hydroxy-1,2-oxaborinan-6-yl)acetic acid] | Y (Y = MPC1 of 1 μg/mL to 5 μg/mL.) | X (X = MPC1 of less than 1 μg/mL.) | Y (Y = MPC1 of 1 μg/mL to 5 μg/mL.) | Y (Y = MPC1 of 1 μg/mL to 5 μg/mL.) |
| CSCCC(N)C(=O)N[C@H]1CC[C@@H](CC(=O)O)OB1O (stereo partly drawn) [Compound 41, 2-((3R,6S)-3-(2-amino-4-(methylthio)butanamido)-2-hydroxy-1,2-oxaborinan-6-yl)acetic acid] | X (X = MPC1 of less than 1 μg/mL.) | X (X = MPC1 of less than 1 μg/mL.) | X (X = MPC1 of less than 1 μg/mL.) | Y (Y = MPC1 of 1 μg/mL to 5 μg/mL.) |
| NC(Cc1cccnc1)C(=O)N[C@H]1CC[C@@H](CC(=O)O)OB1O (stereo partly drawn) [Compound 42, 2-((3R,6S)-3-(2-amino-3-(pyridin-3-yl)propanamido)-2-hydroxy-1,2-oxaborinan-6-yl)acetic acid] | X (X = MPC1 of less than 1 μg/mL.) | X (X = MPC1 of less than 1 μg/mL.) | X (X = MPC1 of less than 1 μg/mL.) | Y (Y = MPC1 of 1 μg/mL to 5 μg/mL.) |
| O=C(O)C[C@@H]1CC[C@H](NC(=O)Cc2cccnc2)B(O)O1 [Compound 43, 2-((3R,6S)-2-hydroxy-3-(2-(pyridin-3-yl)acetamido)-1,2-oxaborinan-6-yl)acetic acid] | X (X = MPC1 of less than 1 μg/mL.) | X (X = MPC1 of less than 1 μg/mL.) | X (X = MPC1 of less than 1 μg/mL.) | X (X = MPC1 of less than 1 μg/mL.) |
| N[C@H](CCCN/C(=N/C(=O)OCc1ccccc1)NC(=O)OCc1ccccc1)C(=O)N[C@H]1CC[C@@H](CC(=O)O)OB1O [Compound 44, 2-((3R,6S)-3-((R)-2-amino-5-((Z)-2,3-bis(benzyloxycarbonyl)guanidino)pentanamido)-2-hydroxy-1,2-oxaborinan-6-yl)acetic acid] | X (X = MPC1 of less than 1 μg/mL.) | X (X = MPC1 of less than 1 μg/mL.) | X (X = MPC1 of less than 1 μg/mL.) | Y (Y = MPC1 of 1 μg/mL to 5 μg/mL.) |
| O=C(O)C[C@@H]1CC[C@H](NC(=O)[C@@H]2CCCCN2)B(O)O1 [Compound 45, 2-((3R,6S)-2-hydroxy-3-((S)-piperidine-2-carboxamido)-1,2-oxaborinan-6-yl)acetic acid] | Y (Y = MPC1 of 1 μg/mL to 5 μg/mL.) | X (X = MPC1 of less than 1 μg/mL.) | X (X = MPC1 of less than 1 μg/mL.) | Z (Z = MPC1 of greater than 5 μg/mL.) |
| O=C(O)C[C@@H]1CC[C@H](NC(=O)[C@H]2Cc3ccccc3CN2)B(O)O1 [Compound 46, 2-((3R,6S)-2-hydroxy-3-((R)-1,2,3,4-tetrahydroisoquinoline-3-carboxamido)-1,2-oxaborinan-6-yl)acetic acid] | X (X = MPC1 of less than 1 μg/mL.) | X (X = MPC1 of less than 1 μg/mL.) | X (X = MPC1 of less than 1 μg/mL.) | X (X = MPC1 of less than 1 μg/mL.) |
| N=C(N)NCCC[C@@H](N)C(=O)N[C@H]1CC[C@@H](CC(=O)O)OB1O [Compound 47] | Y (Y = MPC1 of 1 μg/mL to 5 μg/mL.) | X (X = MPC1 of less than 1 μg/mL.) | X (X = MPC1 of less than 1 μg/mL.) | Z (Z = MPC1 of greater than 5 μg/mL.) |
| NCCSCC(=O)N[C@H]1CC[C@@H](CC(=O)O)OB1O [Compound 48, 2-((3R,6S)-3-(2-(2-aminoethylthio)acetamido)-2-hydroxy-1,2-oxaborinan-6-yl)acetic acid] | X (X = MPC1 of less than 1 μg/mL.) | X (X = MPC1 of less than 1 μg/mL.) | X (X = MPC1 of less than 1 μg/mL.) | X (X = MPC1 of less than 1 μg/mL.) |
| O=C(O)C[C@@H]1CC[C@H](NC(=O)c2cn(C3CC3)c3cc(N4CCNCC4)c(F)cc3c2=O)B(O)O1 [Compound 58, 2-((3R,6S)-3-(1-cyclopropyl-6-fluoro-4-oxo-7-(piperazin-1-yl)-1,4-dihydroquinoline-3-carboxamido)-2-hydroxy-1,2-oxaborinan-6-yl)acetic acid] | Z (Z = MPC1 of greater than 5 μg/mL.) | Z (Z = MPC1 of greater than 5 μg/mL.) | – | Z (Z = MPC1 of greater than 5 μg/mL.) |
| Nc1cc(CC(=O)N[C@H]2CC[C@@H](CC(=O)O)OB2O)ccn1 [Compound 61, 2-((3R,6S)-3-(2-(2-aminopyridin-4-yl)acetamido)-2-hydroxy-1,2-oxaborinan-6-yl)acetic acid] | X (X = MPC1 of less than 1 μg/mL.) | X (X = MPC1 of less than 1 μg/mL.) | – | X (X = MPC1 of less than 1 μg/mL.) |
